Data on 7 compounds can be found in patent US20250179103A1, “6-OXODECAHYDROPYRROLO[1,2-A][1,5]DIAZOCINE AND 6-OXODECAHYDRO-4H-PYRROLO[2,1-D][1,5]THIAZOCINE DERIVATIVES AS STAT3 AND STAT6 MODULATORS FOR THE TREATMENT OF CANCER AND INFLAMMATORY CONDITIONS” (Recludix Pharma, Inc., priority 2022, published 2025).

In test [1] the target is T1, Recombinant STAT6 protein (STAT6(W123-T658)) (Homo sapiens, UniProt P42226).
T1 construct: Recombinant STAT6 protein (STAT6(W123-T658))
T1 sequence (P42226 123-658): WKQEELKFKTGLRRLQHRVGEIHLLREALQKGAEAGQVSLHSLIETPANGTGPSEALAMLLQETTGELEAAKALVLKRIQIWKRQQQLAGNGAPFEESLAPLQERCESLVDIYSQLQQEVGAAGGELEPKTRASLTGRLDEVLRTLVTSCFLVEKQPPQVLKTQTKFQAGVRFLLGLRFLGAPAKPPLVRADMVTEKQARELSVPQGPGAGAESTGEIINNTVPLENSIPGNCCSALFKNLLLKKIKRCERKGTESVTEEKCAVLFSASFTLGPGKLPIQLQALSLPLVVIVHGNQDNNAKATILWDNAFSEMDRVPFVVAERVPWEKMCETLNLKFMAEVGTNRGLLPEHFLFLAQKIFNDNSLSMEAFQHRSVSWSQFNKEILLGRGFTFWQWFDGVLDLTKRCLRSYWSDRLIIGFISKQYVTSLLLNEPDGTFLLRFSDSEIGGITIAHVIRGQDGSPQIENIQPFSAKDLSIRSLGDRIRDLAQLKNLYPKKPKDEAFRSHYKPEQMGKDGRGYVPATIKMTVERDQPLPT
The test is described as follows: STAT6 Fluorescence Polarization (FP) Assay. As to conditions: STAT6(W123-T658) 250 nM, probe 5-FAM-ApYKPFQDLI-NH2 2 nM, 45-minute incubation. In kind it is binding. Here is the method:
STAT6 Fluorescence Polarization (FP) Assay
An FP assay was developed to determine IC50 values for test substances. Recombinant STAT6 protein (STAT6(W123-T658)) at 250 nM was combined with a fluorescently labeled, phosphotyrosine peptide probe (5-FAM-ApYKPFQDLI-NH2) at 2 nM in FP buffer (10 mM HEPES pH 7.4, 50 mM NaCl, 1 mM EDTA, 0.05% Tween 20.2 mM DTT). 50 μL of STAT6-probe mixture was added to serial diluted compounds in black, 96-well plates (Greiner BioOne 655076) to a final concentration of 1% DMSO. Reaction components were mixed, and FP was measured after 45-minute incubation at room temperature using a Tecan Spark multimode plate reader. FP signal (mP) was plotted against the log concentration of the test substances and IC50 values were calculated by nonlinear regression analysis using GraphPad Prism software. For STAT6 FP assay, A=≤300 nM; B=>300-3000 nM; C=>3-30 μM; and D=>30 μM.
A general note: In fluorescence polarisation assays a small probe gives low polarisation when free and higher when bound to something large.

The target of test [2] is T2, Recombinant STAT3 protein (STAT3(G127-I722)) (Homo sapiens, UniProt P40763).
T2 construct: Recombinant STAT3 protein (STAT3(G127-I722))
T2 sequence (P40763 127-722): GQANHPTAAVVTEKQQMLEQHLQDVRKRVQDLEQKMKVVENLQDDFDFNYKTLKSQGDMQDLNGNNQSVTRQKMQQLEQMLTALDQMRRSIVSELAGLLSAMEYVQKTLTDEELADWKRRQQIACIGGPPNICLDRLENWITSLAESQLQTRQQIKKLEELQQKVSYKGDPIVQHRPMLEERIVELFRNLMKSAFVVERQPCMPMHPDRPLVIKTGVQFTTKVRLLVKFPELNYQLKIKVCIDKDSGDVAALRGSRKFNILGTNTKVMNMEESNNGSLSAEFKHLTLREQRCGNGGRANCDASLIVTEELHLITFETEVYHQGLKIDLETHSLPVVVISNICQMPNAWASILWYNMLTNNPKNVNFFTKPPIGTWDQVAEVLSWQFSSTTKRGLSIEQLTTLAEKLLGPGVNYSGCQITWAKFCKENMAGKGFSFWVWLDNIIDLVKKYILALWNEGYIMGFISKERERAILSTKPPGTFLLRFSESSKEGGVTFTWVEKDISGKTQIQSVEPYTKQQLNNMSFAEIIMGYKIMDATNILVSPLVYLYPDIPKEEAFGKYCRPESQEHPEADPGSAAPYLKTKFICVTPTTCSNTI
In words: STAT3 Fluorescence Polarization (FP) Assay. As to conditions: STAT3(G127-I722) 25 nM, probe 5-FAM-GpYLPQTV-NH2 2 nM, 45-minute incubation. In kind it is binding. Here is the method: STAT3 Fluorescence Polarization (FP) Assay
An FP assay was developed to determine IC50 values for test substances. Recombinant STAT3 protein (STAT3(G127-I722)) at 25 nM was combined with a fluorescently labeled, phosphotyrosine peptide probe (5-FAM-GpYLPQTV-NH2) at 2 nM in FP buffer (10 mM HEPES pH 7.4, 50 mM NaCl, 1 mM EDTA, 0.05% Tween 20.2 mM DTT). 50 μL of STAT3-probe mixture was added to serial diluted compounds in black, 96-well plates (Greiner BioOne 655076) to a final concentration of 1% DMSO. Reaction components were mixed, and FP was measured after 45-minute incubation at room temperature using a Tecan Spark multimode plate reader. FP signal (mP) was plotted against the log concentration of the test substances and IC50 values were calculated by nonlinear regression analysis using GraphPad Prism software. For STAT3 FP assay, A=≤100 nM; B=>100-1000 nM; C=>1-10 μM; and D=>10 μM.

pIC50: −log10 of the molar value.

`CC(=O)N1CCC(NC(=O)c2ccc3ccc(C(F)(F)P(=O)(O)O)cc3c2)C(=O)N2C(CCC2C(=O)N2CC(C#N)C(c3ccccc3)C2)C1` (mixture of isomers) [Compound 4, ((7-(((5S,8S,10aR)-2-acetyl-8-((rel-trans)-3-cyano-4-phenylpyrrolidine-1-carbonyl)-6-oxodecahydropyrrolo[1,2-a][1,4]diazocin-5-yl)carbamoyl)naphthalen-2-yl)difluoromethyl)phosphonic Acid]: the values for the pIC50 in test [1] and in test [2] were at least 6.52 and 5.00 to 6.00, respectively.

In the case of `N#CC1CN(C(=O)C2CCC3CCN(C(=O)OCc4ccccc4)CC(NC(=O)c4cc5cc(C(F)(F)P(=O)(O)O)ccc5s4)C(=O)N32)CC1c1ccccc1` (mixture of isomers) [Compound 9, ((2-(((5S,8S,10aR)-3-((benzyloxy)carbonyl)-8-((rel-trans)-3-cyano-4-phenylpyrrolidine-1-carbonyl)-6-oxodecahydropyrrolo[1,2-a][1,5]diazocin-5-yl)carbamoyl)benzo[b]thiophen-5-yl)difluoromethyl)phosphonic acid], the results for the negative-log IC50 (pIC50) in test [1] and in test [2] were at least 6.52 and 6.00 to 7.00, respectively.

With `N#CC1CN(C(=O)C2CCC3CCNCC(NC(=O)c4cc5cc(C(F)(F)P(=O)(O)O)ccc5s4)C(=O)N32)CC1c1ccccc1` (mixture of isomers) [Compound 10, ((2-(((5S,8S,10aR)-8-((rel-trans)-3-cyano-4-phenylpyrrolidine-1-carbonyl)-6-oxodecahydropyrrolo[1,2-a][1,5]diazocin-5-yl)carbamoyl)benzo[b]thiophen-5-yl)difluoromethyl)phosphonic Acid], the negative logarithm of the IC50 (pIC50) (as a rule, −log10 of the IC50, conventionally taken in molar units) in test [1] is at least 6.52; in test [2], 5.00 to 6.00.

In the case of `N#CC1CN(C(=O)C2CCC3CNCCC(NC(=O)c4ccc5ccc(C(F)(F)P(=O)(O)O)cc5c4)C(=O)N32)CC1c1ccccc1` (mixture of isomers) [Compound 211, ((7-(((5S,8S,10aR)-8-((rel-trans)-3-cyano-4-phenylpyrrolidine-1-carbonyl)-6-oxodecahydropyrrolo[1,2-a][1,4]diazocin-5-yl)carbamoyl)naphthalen-2-yl)difluoromethyl)phosphonic acid], the figures for the pIC50 in test [1] and in test [2] were at least 6.52 and 5.00 to 6.00, respectively.

As for `CC(=O)N1CC[C@H]2CC[C@@H](C(=O)N3C[C@@H](O)[C@H](n4ccnn4)C3)N2C(=O)[C@@H](NC(=O)c2ccc3ccc(C(F)(F)P(=O)(O)O)cc3c2)C1` (relative stereo) [Compound 5, ((7-(((5S,8S,10aR)-3-acetyl-8-((3R,4R)-3-hydroxy-4-(1H-1,2,3-triazol-1-yl)pyrrolidine-1-carbonyl)-6-oxodecahydropyrrolo[1,2-a][1,5]diazocin-5-yl)carbamoyl)naphthalen-2-yl)difluoromethyl)phosphonic Acid], the pIC50 in test [1] was 5.52 to 6.52; in test [2] it was 5.00 to 6.00.

As for `CC(=O)N1CC[C@H]2CC[C@@H](C(=O)N3C[C@H](c4ccccc4)[C@@H](O)C3)N2C(=O)[C@@H](NC(=O)c2cc3cc(C(F)(F)P(=O)(O)O)ccc3s2)C1` (relative stereo) [Compound 60, ((2-(((5S,8S,10aR)-3-acetyl-8-((rel-trans)-3-hydroxy-4-phenylpyrrolidine-1-carbonyl)-6-oxodecahydropyrrolo[1,2-a][1,5]diazocin-5-yl)carbamoyl)benzo[b]thiophen-5-yl)difluoromethyl)phosphonic acid], the negative-log IC50 (pIC50) in test [1] is at least 6.52; in test [2], 5.00 to 6.00.

As for `CC(=O)N1CC[C@H]2CC[C@@H](C(=O)N3CC(c4cn[nH]c4)[C@@H](C#N)C3)N2C(=O)[C@@H](NC(=O)c2cc3cc(C(F)(F)P(=O)(O)O)ccc3s2)C1` (relative stereo) [Compound 141, ((2-(((5S,8S,10aR)-3-acetyl-8-((rel-trans)-3-cyano-4-(1H-pyrazol-4-yl)pyrrolidine-1-carbonyl)-6-oxodecahydropyrrolo[1,2-a][1,5]diazocin-5-yl)carbamoyl)benzo[b]thiophen-5-yl)difluoromethyl)phosphonic acid], the figures for the pIC50 in test [1] and in test [2] were 5.52 to 6.52 and 5.00 to 6.00, respectively.
